Results published in publication PMC7594079, “Insights into the Function and Evolution of Taste 1 Receptor Gene Family in the Carnivore Fish Gilthead Seabream (Sparus aurata)” (International Journal of Molecular Sciences, 2020).

Legend:
[1] = test system: pGL3-NFAT-luc-HEK293 (Cl.3) cells; format: cell-based
From the text: BL (Basal Levels) = 100% RLU. Different lowercase letters (a,b,c) on top of bars indicate significant differences (p < 0.05) between concentrations, assessed by one-way ANOVA followed by Tukey’s Multiple Comparison Test (GraphPad Prism version 5.00).

saT1R1/R1 = conditions: cells transfected with saT1R1 alone (double amount)
From the text: (§1) Previous studies have reported that heterodimeric coupling of saT1R complexes may not be the only mode of functional activation since these subunits, especially T1R3, can also couple as homodimers.
(§2) Figure 8 Comparisons of proline Log-dose response curves of activation in heterologous transfections of hetero- and homo-dimeric saT1R combinations of saT1R1/R3 (black dots), saT1R2a/R3 (white dots), saT1R2b/3 (black triangles), saT1R1/R1 (white triangles) and saT1R3/R3 (black squares). Response is measured as RLU mean ± SEM of four independent determinations normalized to the mean response of the same transfections stimulated with reduced assay medium (BME + 1% FBS), expressed as percentage relative to basal levels (BL).
(§3) saT1Rs (saT1R1, saT1R2a, saT1R2b saT1R3) and saGαi1-2 genes were RT-PCR amplified using 5’ and 3’ flanking primers carrying HindIII and XhoI restriction sites, respectively. Gel-purified fragments were cloned into pGEM-T Easy vectors, re-sequenced, digested and subcloned into pcDNA™3 (Invitrogen, Carlsbad, CA, USA). Effective saT1R cloning into pcDNA™3 was further verified by HindIII/XhoI digestion. […]

saT1R3/R3 = conditions: cells transfected with saT1R3 alone (double amount)
From the text: as §1, §2, §3

| Structure (SMILES) | doses toxic for the cells and/or inhibiting their stimulation [1] | response to Pro stimulation (saT1R1/R1) | response to Pro stimulation (saT1R3/R3) |
| --- | --- | --- | --- |
| OC[C@H]1OC(O)[C@H](O)[C@@H](O)[C@@H]1O (stereo partly drawn) [D-Glucose] | 300 to 500 mM |  |  |
| O=C(O)[C@@H]1CCCN1 [Pro, Proline] |  | did not respond | did not respond |
